Measurements published in patent US4291164A, “Cephalosporin analogs and methods for production thereof” (Kyowa Hakko Kogyo Co., Ltd., priority 1978, dated 1981).
Converted amounts (≈) assume the structure as drawn. Counter-ions that a name gives are not always drawn.

Experiments:
Type in all cases: cell-based
[1] = system: Pseudomonas aeruginosa 145; assay: Antibacterial activity, Heart Infusion Agar Dilution Method, Pseudomonas aeruginosa 145; conditions: Pseudomonas aeruginosa, 145, pH 7.2; read-out: Minimum Inhibitory Concentration
Protocol: (§1) The antibacterial activity of the compounds obtained in the above Examples 24, 26, 28, 30, 32, 34, 36, 38, 40 and 41 are determined by Heart Infusion Agar Dilution Method (pH 7.2). Cefazolin is used as a reference.

[2] = system: Klebsiella pneumoniae 8045; assay: Antibacterial activity, Heart Infusion Agar Dilution Method, Klebsiella pneumoniae 8045; conditions: for MIC: pH 7.2, read-out: Minimum Inhibitory Concentration
Protocol: as §1

[3] = system: Pseudomonas putida F264; assay: Antibacterial activity, Heart Infusion Agar Dilution Method, Pseudomonas putida F264; conditions: pH 7.2, read-out: Minimum Inhibitory Concentration
[4] = system: Escherichia coli NIHJC2; assay: Antibacterial activity, Heart Infusion Agar Dilution Method, Escherichia coli NIHJC2; conditions: Escherichia coli NIHJC2, Heart Infusion Agar Dilution, pH 7.2; for MIC: read-out: Minimum Inhibitory Concentration
Protocol: as §1

[5] = system: Klebsiella pneumoniae Y60; assay: Antibacterial activity, Heart Infusion Agar Dilution Method, Klebsiella pneumoniae Y60; conditions: for MIC: pH 7.2, read-out: Minimum Inhibitory Concentration
[6] = system: Serratia marcescens T26; assay: Antibacterial activity, Heart Infusion Agar Dilution Method, Serratia marcescens T26; conditions: pH 7.2, read-out: Minimum Inhibitory Concentration
[7] = system: Proteus rettgeri KY4289; assay: Antibacterial activity, Heart Infusion Agar Dilution Method, Proteus rettgeri KY4289; conditions: for MIC: Providencia rettgeri, pH 7.2, read-out: Minimum Inhibitory Concentration
Protocol: as §1

[8] = system: Proteus vulgaris 6897; assay: Antibacterial activity, Heart Infusion Agar Dilution Method, Proteus vulgaris 6897; conditions: for MIC: pH 7.2, read-out: Minimum Inhibitory Concentration
Protocol: as §1

[9] = system: Staphylococcus epidermidis; assay: Antibacterial activity, Heart Infusion Agar Dilution Method, Staphylococcus epidermidis; conditions: pH 7.2, read-out: Minimum Inhibitory Concentration
Protocol: as §1

[10] = system: Escherichia coli Juhl; assay: Antibacterial activity, Heart Infusion Agar Dilution Method, Escherichia coli Juhl; conditions: Escherichia coli Juhl, Heart Infusion Agar Dilution, pH 7.2; for MIC: read-out: Minimum Inhibitory Concentration
[11] = system: Serratia marcescens T55; assay: Antibacterial activity, Heart Infusion Agar Dilution Method, Serratia marcescens T55; conditions: for MIC: pH 7.2, read-out: Minimum Inhibitory Concentration
[12] = system: Staphylococcus aureus Smith; assay: Antibacterial activity, Heart Infusion Agar Dilution Method, Staphylococcus aureus Smith; conditions: pH 7.2, read-out: Minimum Inhibitory Concentration
Protocol: as §1

[13] = system: Staphylococcus aureus 209p; assay: Antibacterial activity, Heart Infusion Agar Dilution Method, Staphylococcus aureus 209p; conditions: pH 7.2, read-out: Minimum Inhibitory Concentration
Protocol: as §1

[14] = system: Proteus mirabilis 1287; assay: Antibacterial activity, Heart Infusion Agar Dilution Method, Proteus mirabilis 1287; conditions: for MIC: pH 7.2, read-out: Minimum Inhibitory Concentration
Protocol: as §1

[15] = system: Proteus morganii KY4298; assay: Antibacterial activity, Heart Infusion Agar Dilution Method, Proteus morganii KY4298; conditions: for MIC: Morganella morganii, pH 7.2, read-out: Minimum Inhibitory Concentration
Protocol: as §1

[16] = system: Microorganism; assay: Antimicrobial activity as shown in table (overall statement); conditions: as shown in table below
Protocol: as §1

| SMILES | MIC [1] [µg/mL] | MIC [2] [µg/mL] | MIC [3] [µg/mL] | MIC [4] [µg/mL] | MIC [5] [µg/mL] | MIC [6] [µg/mL] | MIC [7] [µg/mL] | MIC [8] [µg/mL] | MIC [9] [µg/mL] | MIC [10] [µg/mL] | MIC [11] [µg/mL] | MIC [12] [µg/mL] | MIC [13] [µg/mL] | MIC [14] [µg/mL] | MIC [15] [µg/mL] | also measured |
| --- | --- | --- | --- | --- | --- | --- | --- | --- | --- | --- | --- | --- | --- | --- | --- | --- |
| CO/N=C(/C(=O)N[C@@H]1C(=O)N2C(C(=O)O)=CCC[C@H]12)c1csc(N)n1 (relative stereo) [Example 24, (±)-cis-7-[2-(2-amino-4-thiazolyl)-2-anti-methoxyimino-acetamido]-1-azabicyclo[4,2,0]oct-2-en-8-one-2-carboxylic acid] | > 100 | 0.2 (≈ 0.547 µM) | 0.78 (≈ 2.13 µM) | 0.78 (≈ 2.13 µM) | 1.56 (≈ 4.27 µM) | 3.12 (≈ 8.54 µM) | 0.1 (≈ 0.274 µM) | 0.4 (≈ 1.09 µM) | 100 (≈ 274 µM) | 1.56 (≈ 4.27 µM) | 1.56 (≈ 4.27 µM) | > 100 | 100 (≈ 274 µM) | 0.78 (≈ 2.13 µM) | 0.78 (≈ 2.13 µM) |  |
| CO/N=C(/C(=O)N[C@@H]1C(=O)N2C(C(=O)O)=C[C@@H](C)C[C@H]12)c1csc(N)n1 (relative stereo) [Example 34, (±)-cis-7β[2-(2-amino-4-thiazolyl)-2-anti-methoxyiminoacetamido]-4α-methyl-2-carboxy-1-azabicyclo[4,2,0]oct-2-en-8-one] | > 100 | 0.1 (≈ 0.264 µM) |  | 0.4 (≈ 1.05 µM) |  | 25 (≈ 65.9 µM) | 0.1 (≈ 0.264 µM) | < 0.05 | 25 (≈ 65.9 µM) | 0.78 (≈ 2.06 µM) |  | 25 (≈ 65.9 µM) | 12.5 (≈ 32.9 µM) | 0.2 (≈ 0.527 µM) | 0.78 (≈ 2.06 µM) |  |
| N[C@@H](C(=O)N[C@@H]1C(=O)N2C(C(=O)O)=CCC[C@H]12)c1ccccc1 [Example 26 B isomer] |  | 0.78 (≈ 2.47 µM) | 100 (≈ 317 µM) | 3.12 (≈ 9.89 µM) | 3.12 (≈ 9.89 µM) |  | 12.5 (≈ 39.6 µM) | 50 (≈ 159 µM) | 3.12 (≈ 9.89 µM) | 3.12 (≈ 9.89 µM) | 12.5 (≈ 39.6 µM) | 6.25 (≈ 19.8 µM) | 0.4 (≈ 1.27 µM) | 12.5 (≈ 39.6 µM) | 50 (≈ 159 µM) | antimicrobial activity (in words) [16]: stronger antimicrobial activity than the more polar isomer |
| C[C@H]1C=C(C(=O)O)N2C(=O)[C@@H](NC(=O)[C@H](N)c3ccccc3)[C@H]2C1 (relative stereo) [Example 30, trifluoroacetate of (±)-cis-7β-[(R)-2-phenyl-2-aminoacetamido]-4β-methyl-2-carboxy-1-azabicyclo[4,2,0]oct-2-en-8-one] | > 100 | 6.25 | > 100 | 50 | 100 | > 100 | > 100 | > 100 | 3.12 | 25 | > 100 | 1.56 | 0.4 | > 100 | > 100 |  |
| CO/N=C(\C(=O)N[C@@H]1C(=O)N2C(C(=O)O)=CCC[C@H]12)c1csc(N)n1 (relative stereo) [Example 40, (±)-cis-7-[2-(2-amino-4-thiazolyl)-2-syn-methoxyiminoacetamido]-1-azabicyclo[4,2,0]oct-2-en-8-on-2-carboxylic acid] | 50 (≈ 137 µM) | ≤ 0.05 | 0.1 (≈ 0.274 µM) | ≤ 0.05 | ≤ 0.05 | 0.78 (≈ 2.13 µM) | ≤ 0.05 | ≤ 0.05 | 12.5 (≈ 34.2 µM) | ≤ 0.05 | ≤ 0.05 | 12.5 (≈ 34.2 µM) | 12.5 (≈ 34.2 µM) | ≤ 0.05 | ≤ 0.05 |  |
| N[C@@H](C(=O)NC1C(=O)N2C(C(=O)O)=CCCC12)c1ccccc1 (single isomer, unassigned) [Example 26 A isomer] |  |  |  |  |  |  |  |  |  |  |  |  |  |  |  | Minimum Inhibitory Concentration ([2]; pH 7.2): 50 µg/mL; Minimum Inhibitory Concentration [4]: 50 µg/mL; Minimum Inhibitory Concentration ([5]; pH 7.2): 50 µg/mL; Minimum Inhibitory Concentration ([7]; pH 7.2): 6.25 µg/mL; Minimum Inhibitory Concentration ([8]; pH 7.2): 25 µg/mL; Minimum Inhibitory Concentration [10]: 100 µg/mL; Minimum Inhibitory Concentration ([11]; pH 7.2): 100 µg/mL; Minimum Inhibitory Concentration ([14]; pH 7.2): 25 µg/mL; Minimum Inhibitory Concentration ([15]; pH 7.2): 50 µg/mL |
